Patent publication EP0338372A2, “Solubilized pro-drugs” (AMERICAN CYANAMID COMPANY, priority 1988, dated 1989)

Tested on: lymphocytic leukemia P388
Test: Lymphocytic leukemia P388 test
Format: in vivo, BDF1 mice
[1] = Dose 200 mg/kg intraperitoneally on days 1, 5 and 9
[2] = Dose 6.25 mg/kg intraperitoneally on days 1, 5 and 9
[3] = Dose 12.5 mg/kg intraperitoneally on days 1, 5 and 9
[4] = Dose 25 mg/kg intraperitoneally on days 1, 5 and 9
[5] = Dose 3.12 mg/kg intraperitoneally on days 1, 5 and 9
[6] = Dose 50 mg/kg intraperitoneally on days 1, 5 and 9
[7] = Dose 100 mg/kg intraperitoneally on days 1, 5 and 9

## CCCC(=O)N1CCN=C1N(N=Cc1c2ccccc2c(C=NN(C(=O)CCC)C2=NCCN2C(=O)CCC)c2ccccc12)C(=O)CCC [2,2'-(9,10-Anthracenediyldimethylidyne)bis[1-[4,5-dihydro-1-(1-oxobutyl)-1H-imidazol-2-yl]hydra-zide] of butanoic acid]
[1]
  Median Survival: 11.5 days
  T/C x 100 %: 105%

## O=C(O)C1CCCCC1C(=O)N1CCN=C1NN=Cc1c2ccccc2c(C=NNC2=NCCN2C(=O)C2CCCCC2C(=O)O)c2ccccc12 (stereo not shown) [2,2-[9,10-Anthracenediylbis[methylidyne-1-hydrazinyl-2-ylidene(4,5-dihydro-1H-imidazole-2,1-diyl)-carbonyl]]biscyclohexanecarboxylic Acid]
[2]
  Median Survival: 13.5 days
  T/C x 100 %: 123%
[3]
  Median Survival: 16 days
  T/C x 100 %: 145%
[4]
  Median Survival: 18 days
  T/C x 100 %: 164%

## O=C(c1ccco1)N1CCN=C1N(N=Cc1c2ccccc2c(C=NN(C(=O)c2ccco2)C2=NCCN2C(=O)c2ccco2)c2ccccc12)C(=O)c1ccco1 [2,2'-(9,10-Anthracenediyldimethylidyne)bis[1-[1-(2-furanylcarbonyl)-4,5-dihydro-1H-imidazol-2-yl]hydrazide] of 2-furancarboxylic acid]
[1]
  Median Survival: 12 days
  T/C x 100 %: 120%

## O=C(c1cccc([N+](=O)[O-])c1)N1CCN=C1N(N=Cc1c2ccccc2c(C=NN(C(=O)c2cccc([N+](=O)[O-])c2)C2=NCCN2C(=O)c2cccc([N+](=O)[O-])c2)c2ccccc12)C(=O)c1cccc([N+](=O)[O-])c1 [2,2'(9,10-Anthracenediyldimethylidyne)bis[1-[4,5-dihydro-1-(3-nitrobenzoyl)-1H-imidazol-2-yl]hydra-zide] of 3-nitrobenzoic acid]
[5]
  Median Survival: 16 days
  T/C x 100 %: 133%
[2]
  Median Survival: 16 days
  T/C x 100 %: 133%
[3]
  Median Survival: 13.5 days
  T/C x 100 %: 113%
[4]
  Median Survival: 18 days
  T/C x 100 %: 150%
[6]
  Median Survival: 16.5 days
  T/C x 100 %: 138%
[7]
  Median Survival: 18 days
  T/C x 100 %: 150%
[1]
  Median Survival: 21.5 days
  T/C x 100 %: 179%

## [9,10-Anthracenedlylbis(methylidyne-1-hydrazinyl-2-ylidene (4,5-dihydro-1H-imidazol-2,1-diyl)]]-phosphonic Acid Hydroiodide
mouse, in vivo, ip, 0.4 mg/kg
  Median Survival: 21 days
  T/C x 100 %: 191%
mouse, in vivo, ip, 0.8 mg/kg
  Median Survival: 19 days
  T/C x 100 %: 173%
mouse, in vivo, ip, 1.6 mg/kg
  Median Survival: 24.5 days
  T/C x 100 %: 223%
mouse, in vivo, ip, 3.2 mg/kg
  Median Survival: 24 days
  T/C x 100 %: 218%
mouse, in vivo, ip, 6.3 mg/kg
  Median Survival: 22 days
  T/C x 100 %: 200%
mouse, in vivo, ip, 12.5 mg/kg
  Median Survival: 53.5 days
  T/C x 100 %: 486%
mouse, in vivo, ip, 25 mg/kg
  Median Survival: >60 days
  T/C x 100 %: >545%

## O=CN1CCN=C1NN=Cc1c2ccccc2c(C=NNC2=NCCN2C=O)c2ccccc12 [2,2-[9,10-Anthracenediylbis(methylidyne-1-hydrazinyl-2-ylidene)]bis[4,5-dihydro]-1H-imidazole-1-carboxaldehyde]
[6]
  Median Survival: 12 days
  T/C x 100 %: 120%
[1]
  Median Survival: 12 days
  T/C x 100 %: 120%

## [2-[[[10-[((4,5-Dihydro-1H-imidazol-2-yl)ethylhydrazono]methyl]-9-anthracenyl]methylene] hydrazino]-4,5-dihydro-1H-imidazol-1-yl]phosphonic Acid, Hydroiodide
mouse, in vivo, ip, 0.4 mg/kg
  Median Survival: 18 days
  T/C x 100 %: 164%
mouse, in vivo, ip, 0.8 mg/kg
  Median Survival: 21.5 days
  T/C x 100 %: 195%
mouse, in vivo, ip, 1.6 mg/kg
  Median Survival: 18 days
  T/C x 100 %: 164%
mouse, in vivo, ip, 3.2 mg/kg
  Median Survival: 22.5 days
  T/C x 100 %: 205%
mouse, in vivo, ip, 6.3 mg/kg
  Median Survival: 24 days
  T/C x 100 %: 218%
mouse, in vivo, ip, 12.5 mg/kg
  Median Survival: 25 days
  T/C x 100 %: 227%
mouse, in vivo, ip, 25 mg/kg
  Median Survival: 25 days
  T/C x 100 %: 227%
mouse, in vivo, ip, 50 mg/kg
  Median Survival: 25.5 days
  T/C x 100 %: 232%
